# Where “and” joins values, the source holds several entries; their conditions need not be identical. Identical values can stand only once. Like-named read-outs stand apart in the source and are kept apart here.
# Legend:
# [1] = Method: Equilibrium Solubility Studies. […] Each equilibrium solubility experiment was completed in triplicate. Equilibrium solubility was defined when solubility measured across two consecutive days varied less than 5%. The samples were allowed to equilibrate at 37 °C and were vortex-mixed twice a day to ensure the compounds were well dispersed in the LBF. The samples were left to equilibrate for at least 3 days. […] At each time point, samples were then centrifuged at 37 °C (14,800 rpm (21,000× g), Thermo Scientific, Heraeus Pico 21 Centrifuge) and aliquots of 20 mg were taken from the supernatant and dissolved in 1 mL of chloroform: methanol (2:1, v/v). The chloroform: methanol solution was then diluted 20-fold with water: acetonitrile (1:1, v/v). The samples were then assayed by HPLC to determine the concentration of compound in formulation.
# [2] = In vitro dispersion and digestion test of LBFs (drug solubilization); type: physicochemical; conditions: for % of drug present in the aqueous phase compared to total drug loading: end of digestion phase (60 min), loading 80% of equilibrium solubility, n = 3
# Method: In Vitro Drug Solubilization. […] Drug loading in each formulation was at 80% of the equilibrium solubility of the drug or API-IL in that formulation to maintain a consistent thermodynamic activity across all LBFs. In vitro dispersion and digestion experiments were conducted using a pH-stat apparatus (Metrohm® AG, Herisau, Switzerland), which comprised a Titrando 802 propeller stirrer/804 Ti Stand combination, a glass pH electrode (iUnitrode), and two 800 Dosino dosing units coupled to 10 mL autoburettes (Metrohm® AG). The pH-stat was connected to a PC and operated via Tiamo 2.0 software (Metrohm®). […] The pancreatic enzyme was prepared by mixing 1 g of porcine pancreatin with 5 mL of lipolysis buffer and 20 µL of 5 M NaOH. After mixing, this was then centrifuged at 2880× g at 5 °C for 10 min (Crown Scientific, Eppendorf AG Centrifuge 5804 R, Sydney Australia) and the supernatant used as the enzyme solution. The lipolysis buffer was prepared by dissolving 0.474 g of tris maleate, 0.206 g of CaCl2·H2O, and 8.775 g of NaCl in one liter of distilled water to form a 2 mM tris maleate 1.4 mM CaCl2·H2O 150 mM NaCl buffer; the pH was adjusted to 6.5 using NaOH. The micellar solution was prepared by dissolving 0.783 g of NaTDC and 0.291 g of PC in 500 mL of lipolysis buffer to form a 3 mM NaTDC 0.75 mM PC solution. […] This drop in pH was detected by the pH-stat controller, which then titrated the FA produced using an autoburette that added NaOH to keep the pH at a set point (0.6 M NaOH for MCFs, and 0.2 M NaOH for LCFs). By knowing the quantity of NaOH added and assuming stoichiometric titration, this indirectly quantified the extent of FA production (as a measure of digestion). […] The mass of the drug recovered in the aqueous phase and the pellet phase was then quantified by HPLC [35, 36]. The supernatant and pellet samples were diluted with acetonitrile (1:10 v/v) and then mobile phase (1:10 v/v), and lumefantrine concentrations in the samples determined using HPLC [35, 36, 37, 38].
# [3] = Supersaturation during in vitro dispersion/digestion testing; type: physicochemical; conditions: for maximum supersaturation ratio SR^Mdisp (APmax/APdigest): dispersion, time 0 min; for maximum supersaturation ratio SR^Mdig (APmax/APdigest): end of digestion, 60 min
# Method: Supersaturation During In Vitro Testing. The degree of supersaturation of drug concentrations in the aqueous phase during formulation dispersion/digestion was assessed by comparing the measured aqueous phase concentration to equilibrium drug solubility in blank aqueous phase obtained by dispersion and digestion of blank (i.e., non-drug loaded) formulation under identical conditions. Due to the physical state of lumefantrine docusate (i.e., an amorphous semi-solid), the equilibrium solubility assessment was conducted by dissolving 3 mg of IL in 10 µL of ethanol in a microcentrifuge tube and then adding 200 mg of aqueous phase obtained from the blank digestions (n = 3 for each time point for each formulation). The contents were subsequently vortex-mixed for 30 s. […] Supersaturation was assessed at 4 time points during the in vitro dispersion and digestion tests (0 min (end dispersion), and 5, 30, and 60 min (post digestion)) for the Type II-MC, IIIB-MC, IIIB-LC, and IV formulations.
# The supersaturation ratio (SR) provides an indication of thermodynamic activity and the likelihood of either drug precipitation, or enhanced absorption from an LBF, where the higher the number, the more supersaturated and therefore the more likely to precipitate during in vitro digestion. The maximum supersaturation ratio (SR^M) provides a measure of the maximum supersaturation pressure that would be generated by digestion of an LBF, assuming no precipitation and is calculated from the following:(1) SR^M=APmax/APdigest where APmax is the maximum possible aqueous phase concentration of drug during the in vitro dispersion and digestion test (i.e., in the absence of any precipitation), and APdigest is the equilibrium solubility of the drug in blank aqueous phase (i.e., where the aqueous phase was obtained from a digestion of blank LBF). Williams et al. have previously proposed that sustainable supersaturation most commonly occurs when SR^M < 3, and that exceeding this threshold increases the likelihood of drug precipitation during in vitro dispersion and digestion tests. Only the Type II-MC, IIIB-MC, IIIB-LC, and IV formulations were evaluated as these were the four formulations chosen to proceed to the in vivo bioavailability studies. The figures also depict APmax, as well as the drug solubility in the aqueous colloidal phase of the blank LBF (APdigest). […] This was most apparent at early time points for the Type II-MCF formulation where SR^M was ~20 and at later time points post digestion for the Type IIIB-MCF where SR^M was >40. […] Similarly, the SR^M for the Type IIIB-MCF at the end of digestion was the highest, but majority of lumefantrine docusate remained solubilized at 60 min (69% solubilized).
# [4] = Oral bioavailability study in rats; type: in vivo, male Sprague-Dawley rats
# Method: Oral Bioavailability Studies. […] Experiments were conducted in fasted male Sprague-Dawley rats (240–320 g). The day prior to the study, the rats were anaesthetized with isoflurane and the right carotid artery was surgically cannulated with polyethylene tubing to facilitate blood collection (procedure described previously) [40]. Animals were allowed to recover overnight and were fasted up to 12 h prior to and 8 h after dose administration, with water provided ad libitum. The rats were fed 8 h after dosing.
# Animals were then administered a further 0.5 mL of water. […] The aqueous suspension comprised 0.5% w/v sodium carboxymethylcellulose, 0.4% w/v Tween 80, and 0.9% NaCl in water.
# Blood samples were collected via the carotid artery cannula at pre-dose, 0.5, 1, 2, 3, 4, 6, 8, 10, and 24 h after oral administration of the formulations. Blood samples were centrifuged at 6700× g for 5 min and plasma was collected and stored at −20 °C until assayed by LC-MS. Statistically significant differences between formulations were determined by one-way analysis of variance (ANOVA) at a test significance level of α ≤ 0.05, followed by a Tukey’s multiple comparisons test.
# Plasma Sample Preparation and Analysis. Lumefantrine concentrations in rat plasma were assayed via LC-MS using a modification of a previously published assay for lumefantrine [41]. […] Plasma samples or calibration standards (50 µL) were spiked with 10 µL of internal standard (halofantrine hydrochloride, 1000 ng/mL in 1:1 v/v water: acetonitrile) followed by vortex mixing for 10 s. To precipitate plasma proteins, acetonitrile (200 µL) was added and samples vortex mixed for 1 min. The samples were then allowed to stand at room temperature for 30 min. After centrifugation at 10,000× g for 10 min at room temperature, 150 µL of supernatant was transferred into vials for analysis.
# Lumefantrine plasma samples were analyzed using a Shimadzu LCMS-8050 system (Shimadzu Scientific Instruments, Kyoto, Japan) consisting of a CBM-20A system controller, a DGU-20A5R degassing unit, two Nexera X2 LC-30 AD liquid chromatograph pumps, a Nexera X2 SIL-30AC autosampler, a CTO-20A column oven (held at 40 °C), and a triple quadrupole mass spectrometer with an electrospray ionization (ESI) interface. Data acquisition and processing was performed using LC-MS Solutions software (Shimadzu, Kyoto, Japan). The desolvation line (DL) and heat block were kept at 250 °C and 400 °C, respectively. The nebulizing gas flow and drying gas flow rates were 3.0 L/min and 10.0 L/min, respectively. Mobile phase A was Milli-Q water containing 0.1% w/v formic acid, and mobile phase B was acetonitrile containing 0.1% w/v formic acid. […] Mobile phase B was then held at 80% for 0.5 min, followed by a linear decrease to 30% over the next 0.5 min after which conditions were held for another 0.5 min.
# [5] = design: method as in PMID 30376336; conditions: cited from earlier work
# [6] = cited from earlier work
# [7] = design: method as in PMID 23531442; conditions: cited from earlier work
structure (smiles),measurement,setting,value
CCCCC(CC)COC(=O)CC(C(=O)OCC(CC)CCCC)S(=O)(=O)O.CCCCN(CCCC)CC(O)c1cc(Cl)cc2c1-c1ccc(Cl)cc1C2=Cc1ccc(Cl)cc1 (racemic) [lumefantrine docusate],miscibility in the Type IV formulation,[1],miscible
same,"solubility in LBF, fold higher than lumefantrine free base",[1],2- to 80 fold
same,solubility in the Type IV formulation (proportions),[1],> 1:1 w/w
same,% of drug present in the aqueous phase compared to total drug loading,[2]; Type IIIB-LCF,89%
same,% of drug present in the aqueous phase compared to total drug loading,[2]; Type IIIB-MCF,69%
same,"drug concentration in the aqueous phase, fold higher than the equivalent lumefantrine free base formulations","[2]; after dispersion and digestion, range over all LBFs",2-to-55 fold
same,maximum supersaturation ratio SR^Mdisp (APmax/APdigest),[3]; Type II-MCF,~ 20 and 19.9
same,supersaturation ratio SR (measured aqueous phase concentration / equilibrium solubility in blank aqueous phase),"[3]; Type II-MCF, during dispersion",5.5
same,maximum supersaturation ratio SR^Mdig (APmax/APdigest),[3]; Type II-MCF,8.0
same,maximum supersaturation ratio SR^Mdisp (APmax/APdigest),[3]; Type IIIB-LCF,3.6
same,maximum supersaturation ratio SR^Mdig (APmax/APdigest),[3]; Type IIIB-LCF,7.9
same,maximum supersaturation ratio SR^Mdisp (APmax/APdigest),[3]; Type IIIB-MCF,5.7
same,maximum supersaturation ratio SR^Mdig (APmax/APdigest),[3]; Type IIIB-MCF,> 40 and 43.2
same,supersaturation throughout the in vitro test,[3]; Type IV formulation,no supersaturation was evident
same,maximum supersaturation ratio SR^Mdisp (APmax/APdigest),[3]; Type IV,6.3
same,maximum supersaturation ratio SR^Mdig (APmax/APdigest),[3]; Type IV,8.1
same,maximum supersaturation ratio SR^M,"[3]; in all cases: Type II-MC, IIIB-MC, IIIB-LC and IV formulations",higher than 3
same,"exposure, fold enhanced when compared to the free base",[4]; IL in LBF vs free base suspensions 85 mg/kg,up to 50 fold
same,increase in exposure after oral administration compared to aqueous suspension of the free base,[4]; Type IIIB LC formulation 65 mg/kg vs aqueous suspension 85 mg/kg,~ 50 fold
same,increase in exposure after oral administration compared to lipid suspension of the free base,[4]; Type IIIB LC formulation 65 mg/kg vs free base suspension in Type IIIB-LCF 85 mg/kg,~ 10 fold
same,"systemic exposure (AUC 0 to 24 h), statistical comparison","[4]; Type IIIB-LCF 65 mg/kg, one-way ANOVA, p < 0.05, n = 4",significantly higher exposure than all other formulations tested
same,"systemic exposure (AUC 0 to 24 h), statistical comparison with both free base suspensions","[4]; Type IIIB-MCF 65 mg/kg, one-way ANOVA, p < 0.05, n = 4",significantly higher exposure
"CCCCC(CC)COC(=O)CC(C(=O)OCC(CC)CCCC)S(=O)(=O)O.COc1cc2nccc(Oc3ccc(NC(=O)C4(C(=O)Nc5ccc(F)cc5)CC4)cc3)c2cc1OC [Cabozantinib docusate, cabozantinib docusate]","bioavailability, fold enhanced compared to an aqueous suspension of cabozantinib free base",[5]; long-chain SEDDS,1.8 fold
same,"bioavailability, fold enhanced compared to an aqueous suspension of cabozantinib free base",[5]; medium-chain SEDDS,1.5 fold
C(=C\c1ccccc1)/CN1CCN(C(c2ccccc2)c2ccccc2)CC1.CCCCCCCCCCOS(=O)(=O)O [cinnarizine decyl sulfate],"exposure, fold higher than equivalent dose of cinnarizine free base as a suspension in the same SEDDS formulation","[6]; rats, SEDDS formulation",~ 2 fold
CCC(C)n1ncn(-c2ccc(N3CCN(c4ccc(OCC5COC(Cn6cncn6)(c6ccc(Cl)cc6Cl)O5)cc4)CC3)cc2)c1=O.CCCCC(CC)COC(=O)CC(C(=O)OCC(CC)CCCC)S(=O)(=O)O (stereo not shown) [itraconazole docusate],exposure compared with the commercial formulation Sporanox,"[6]; rat, in vivo",greater exposure
same,"exposure, fold higher than an itraconazole suspension of equal dose","[6]; rat, in vivo",~ 20 fold
CCCCN(CCCC)CC(O)c1cc(Cl)cc2c1-c1ccc(Cl)cc1/C2=C/c1ccc(Cl)cc1 (stereo not shown) [lumefantrine],oral bioavailability,[7],4–11%

# From PMC7023222, “Ionic Liquid Forms of the Antimalarial Lumefantrine in Combination with LFCS Type IIIB Lipid-Based Formulations Preferentially Increase Lipid Solubility, In Vitro Solubilization Behavior and In Vivo Exposure” (Pharmaceutics, 2019)
